Test results reported in ChEMBL document CHEMBL5346973 (J Med Chem, 2023).
Where a SMILES comes first, the peptide text is derived from it.

What was measured:
[1] = target: Nicotinic acetylcholine receptor alpha9/alpha10 (Rattus norvegicus, UniProt P43144+Q9JLB5); experiment: Antagonist activity at rat alpha9alpha10 nACh receptor expressed in Xenopus oocyte assessed as inhibition of acetylcholine-induced response at -70 mV holding potential by voltage-clamp based electrophysiological assay; assay type: cell-based
Chain of Nicotinic acetylcholine receptor alpha9/alpha10 (P43144 whole entry): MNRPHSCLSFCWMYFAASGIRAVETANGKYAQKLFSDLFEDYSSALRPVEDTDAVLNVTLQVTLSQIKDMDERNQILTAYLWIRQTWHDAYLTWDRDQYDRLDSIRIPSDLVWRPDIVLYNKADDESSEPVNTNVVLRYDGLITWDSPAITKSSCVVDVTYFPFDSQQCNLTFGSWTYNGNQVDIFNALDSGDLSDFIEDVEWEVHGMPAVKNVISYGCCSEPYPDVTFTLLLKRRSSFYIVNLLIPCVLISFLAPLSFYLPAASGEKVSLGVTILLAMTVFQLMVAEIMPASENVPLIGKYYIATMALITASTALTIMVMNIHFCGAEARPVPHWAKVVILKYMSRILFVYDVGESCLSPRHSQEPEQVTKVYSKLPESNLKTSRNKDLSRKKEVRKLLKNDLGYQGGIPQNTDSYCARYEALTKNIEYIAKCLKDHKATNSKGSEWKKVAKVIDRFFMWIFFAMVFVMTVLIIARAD
Chain of Nicotinic acetylcholine receptor alpha9/alpha10 (Q9JLB5 whole entry): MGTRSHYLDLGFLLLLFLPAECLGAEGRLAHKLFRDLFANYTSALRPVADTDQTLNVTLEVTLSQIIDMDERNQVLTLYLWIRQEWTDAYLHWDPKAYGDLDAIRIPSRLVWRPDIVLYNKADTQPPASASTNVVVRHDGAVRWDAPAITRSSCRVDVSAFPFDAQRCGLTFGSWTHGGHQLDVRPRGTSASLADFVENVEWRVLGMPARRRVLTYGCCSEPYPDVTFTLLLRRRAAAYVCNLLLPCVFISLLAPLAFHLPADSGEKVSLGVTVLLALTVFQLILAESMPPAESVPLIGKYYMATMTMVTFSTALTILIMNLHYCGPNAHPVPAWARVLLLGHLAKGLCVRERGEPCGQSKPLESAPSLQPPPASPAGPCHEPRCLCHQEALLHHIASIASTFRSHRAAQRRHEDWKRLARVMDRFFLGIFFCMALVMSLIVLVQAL

[2] = target: Neuronal acetylcholine receptor subunit alpha-7 (Rattus norvegicus, UniProt Q05941); experiment: Antagonist activity at rat alpha7 nACh receptor expressed in Xenopus oocyte assessed as inhibition of acetylcholine-induced response at -70 mV holding potential by voltage-clamp based electrophysiological assay; assay type: cell-based
Chain of Neuronal acetylcholine receptor subunit alpha-7 (Q05941 whole entry): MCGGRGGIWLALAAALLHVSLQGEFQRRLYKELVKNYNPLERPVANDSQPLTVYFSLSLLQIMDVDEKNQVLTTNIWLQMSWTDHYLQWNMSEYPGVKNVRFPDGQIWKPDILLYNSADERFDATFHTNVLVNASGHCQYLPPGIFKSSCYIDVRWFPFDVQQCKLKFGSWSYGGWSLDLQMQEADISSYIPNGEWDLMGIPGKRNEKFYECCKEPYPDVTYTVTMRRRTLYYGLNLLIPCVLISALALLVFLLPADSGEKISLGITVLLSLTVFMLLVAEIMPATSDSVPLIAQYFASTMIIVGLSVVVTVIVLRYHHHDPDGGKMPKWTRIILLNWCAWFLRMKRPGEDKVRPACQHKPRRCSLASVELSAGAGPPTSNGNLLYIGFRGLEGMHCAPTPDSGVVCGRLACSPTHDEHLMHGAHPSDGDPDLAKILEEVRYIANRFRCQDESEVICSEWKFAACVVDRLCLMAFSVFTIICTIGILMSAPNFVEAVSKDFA

Compound	IC50 [1] [µM]	IC50 [2] [µM]
CC[C@H](C)[C@@H]1NC(=O)[C@H](CCCNC(=N)N)NC(=O)[C@H](CCCNC(=N)N)NC(=O)[C@@H](NC(=O)[C@H](Cc2ccc(O)cc2)NC(=O)[C@H](CCCNC(=N)N)NC(=O)[C@H](CCCNC(=N)N)NC(=O)[C@H](C)NC(=O)[C@H](CCCNC(=N)N)NC(=O)[C@H](CC(=O)O)NC(=O)[C@H](Cc2ccc(O)cc2)NC(=O)[C@@H]2CCCN2C(=O)[C@H](CO)NC(=O)[C@H](CCCNC(=N)N)NC(=O)[C@@H]2CSSC[C@H](NC(=O)[C@@H](N)[C@@H](C)O)C(=O)N[C@@H](CCCNC(=N)N)C(=O)N[C@@H](CO)C(=O)N[C@@H](CO)C(=O)NCC(=O)N[C@@H](CCCNC(=N)N)C(=O)N[C@@H](Cc3ccc(O)cc3)C(=O)N2)CSSC[C@@H](C(=O)N[C@H](C(=O)O)C(C)C)NC(=O)[C@H](C)NC(=O)[C@H](CC(=O)O)NC(=O)[C@H]([C@@H](C)O)NC1=O	0.018	3.78
CC[C@H](C)[C@@H]1NC(=O)[C@H](C)NC(=O)[C@H](CCCNC(=N)N)NC(=O)[C@@H]2CSSC[C@H](NC(=O)[C@H](Cc3ccc(O)cc3)NC(=O)[C@H](CCCNC(=N)N)NC(=O)CNC(=O)[C@H](CO)NC(=O)[C@H](CO)NC(=O)[C@H](CCCNC(=N)N)NC(=O)[C@@H](NC(=O)[C@@H](N)[C@@H](C)O)CSSC[C@@H](C(=O)N[C@H](C(=O)O)C(C)C)NC(=O)[C@H](C)NC(=O)[C@H](CC(=O)O)NC(=O)[C@H]([C@@H](C)O)NC1=O)C(=O)N[C@@H](CCCNC(=N)N)C(=O)N[C@@H](CO)C(=O)N1CCC[C@H]1C(=O)N[C@@H](Cc1ccc(O)cc1)C(=O)N[C@@H](CC(=O)O)C(=O)N[C@@H](CCCNC(=N)N)C(=O)N[C@@H](CCCNC(=N)N)C(=O)N[C@@H](CCCNC(=N)N)C(=O)N[C@@H](CCCNC(=N)N)C(=O)N[C@@H](Cc1ccc(O)cc1)C(=O)N2	0.185	> 10
CC[C@H](C)[C@@H]1NC(=O)[C@H](CCCNC(=N)N)NC(=O)[C@H](CCCNC(=N)N)NC(=O)[C@@H]2CSSC[C@H](NC(=O)[C@H](Cc3ccc(O)cc3)NC(=O)[C@H](CCCNC(=N)N)NC(=O)CNC(=O)[C@H](CO)NC(=O)[C@H](CO)NC(=O)[C@H](CCCNC(=N)N)NC(=O)[C@@H](NC(=O)[C@@H](N)[C@@H](C)O)CSSC[C@@H](C(=O)N[C@H](C(=O)O)C(C)C)NC(=O)[C@H](C)NC(=O)[C@H](CC(=O)O)NC(=O)[C@H]([C@@H](C)O)NC1=O)C(=O)N[C@@H](CCCNC(=N)N)C(=O)N[C@@H](CO)C(=O)N1CCC[C@H]1C(=O)N[C@@H](Cc1ccc(O)cc1)C(=O)N[C@@H](CC(=O)O)C(=O)N[C@@H](C)C(=O)N[C@@H](CCCNC(=N)N)C(=O)N[C@@H](CCCNC(=N)N)C(=O)N[C@@H](CCCNC(=N)N)C(=O)N[C@@H](Cc1ccc(O)cc1)C(=O)N2	0.034	6.44
CC[C@H](C)[C@@H]1NC(=O)[C@H](CCCNC(=N)N)NC(=O)[C@H](CCCNC(=N)N)NC(=O)[C@@H](NC(=O)[C@H](Cc2ccc(O)cc2)NC(=O)[C@H](CCCNC(=N)N)NC(=O)[C@H](CCCNC(=N)N)NC(=O)[C@H](CCCNC(=N)N)NC(=O)[C@H](CCCNC(=N)N)NC(=O)[C@H](CC(=O)O)NC(=O)[C@H](Cc2ccc(O)cc2)NC(=O)[C@@H]2CCCN2C(=O)[C@H](CO)NC(=O)[C@H](CCCNC(=N)N)NC(=O)[C@@H]2CSSC[C@H](NC(=O)[C@@H](N)[C@@H](C)O)C(=O)N[C@@H](CCCNC(=N)N)C(=O)N[C@@H](CO)C(=O)N[C@@H](CO)C(=O)NCC(=O)N[C@@H](CCCNC(=N)N)C(=O)N[C@@H](Cc3ccc(O)cc3)C(=O)N2)CSSC[C@@H](C(=O)N[C@H](C(=O)O)C(C)C)NC(=O)[C@H](C)NC(=O)[C@@H](C)NC(=O)[C@H]([C@@H](C)O)NC1=O	0.013	6.69
CC[C@H](C)[C@@H]1NC(=O)[C@H](CCCNC(=N)N)NC(=O)[C@H](CCCNC(=N)N)NC(=O)[C@@H]2CSSC[C@H](NC(=O)[C@H](Cc3ccc(O)cc3)NC(=O)[C@H](CCCNC(=N)N)NC(=O)CNC(=O)[C@H](CO)NC(=O)[C@H](CO)NC(=O)[C@H](CCCNC(=N)N)NC(=O)[C@@H](NC(=O)[C@@H](N)[C@@H](C)O)CSSC[C@@H](C(=O)N[C@H](C(=O)O)C(C)C)NC(=O)[C@H](C)NC(=O)[C@H](CC(=O)O)NC(=O)[C@H]([C@@H](C)O)NC1=O)C(=O)N[C@@H](CCCNC(=N)N)C(=O)N[C@@H](CO)C(=O)N1CCC[C@H]1C(=O)N[C@@H](Cc1ccc(O)cc1)C(=O)N[C@@H](CC(=O)O)C(=O)N[C@@H](CCCNC(=N)N)C(=O)N[C@@H](C)C(=O)N[C@@H](CCCNC(=N)N)C(=O)N[C@@H](CCCNC(=N)N)C(=O)N[C@@H](Cc1ccc(O)cc1)C(=O)N2	0.083	> 10
CC[C@H](C)[C@@H]1NC(=O)[C@H](CCCNC(=N)N)NC(=O)[C@H](CCCNC(=N)N)NC(=O)[C@@H]2CSSC[C@H](NC(=O)[C@H](Cc3ccc(O)cc3)NC(=O)[C@H](CCCNC(=N)N)NC(=O)[C@H](C)NC(=O)[C@H](CO)NC(=O)[C@H](CO)NC(=O)[C@H](CCCNC(=N)N)NC(=O)[C@@H](NC(=O)[C@@H](N)[C@@H](C)O)CSSC[C@@H](C(=O)N[C@H](C(=O)O)C(C)C)NC(=O)[C@H](C)NC(=O)[C@H](CC(=O)O)NC(=O)[C@H]([C@@H](C)O)NC1=O)C(=O)N[C@@H](CCCNC(=N)N)C(=O)N[C@@H](CO)C(=O)N1CCC[C@H]1C(=O)N[C@@H](Cc1ccc(O)cc1)C(=O)N[C@@H](CC(=O)O)C(=O)N[C@@H](CCCNC(=N)N)C(=O)N[C@@H](CCCNC(=N)N)C(=O)N[C@@H](CCCNC(=N)N)C(=O)N[C@@H](CCCNC(=N)N)C(=O)N[C@@H](Cc1ccc(O)cc1)C(=O)N2 (HELM PEPTIDE1{T.C.R.S.S.A.R.Y.C.R.S.P.Y.D.R.R.R.R.Y.C.R.R.I.T.D.A.C.V}$PEPTIDE1,PEPTIDE1,2:R3-27:R3|PEPTIDE1,PEPTIDE1,9:R3-20:R3$$$V2.0)	0.017	5.72
CC[C@H](C)[C@@H]1NC(=O)[C@H](CCCNC(=N)N)NC(=O)[C@H](CCCNC(=N)N)NC(=O)[C@@H](NC(=O)[C@H](Cc2ccc(O)cc2)NC(=O)[C@H](CCCNC(=N)N)NC(=O)[C@H](CCCNC(=N)N)NC(=O)[C@H](CCCNC(=N)N)NC(=O)[C@H](CCCNC(=N)N)NC(=O)[C@H](CC(=O)O)NC(=O)[C@H](Cc2ccc(O)cc2)NC(=O)[C@@H]2CCCN2C(=O)[C@H](CO)NC(=O)[C@H](CCCNC(=N)N)NC(=O)[C@@H]2CSSC[C@H](NC(=O)[C@H](C)N)C(=O)N[C@@H](CCCNC(=N)N)C(=O)N[C@@H](CO)C(=O)N[C@@H](CO)C(=O)NCC(=O)N[C@@H](CCCNC(=N)N)C(=O)N[C@@H](Cc3ccc(O)cc3)C(=O)N2)CSSC[C@@H](C(=O)N[C@H](C(=O)O)C(C)C)NC(=O)[C@H](C)NC(=O)[C@H](CC(=O)O)NC(=O)[C@H]([C@@H](C)O)NC1=O	0.0081	1.08
CC[C@H](C)[C@@H]1NC(=O)[C@H](CCCNC(=N)N)NC(=O)[C@H](CCCNC(=N)N)NC(=O)[C@@H]2CSSC[C@H](NC(=O)[C@H](Cc3ccc(O)cc3)NC(=O)[C@H](CCCNC(=N)N)NC(=O)CNC(=O)[C@H](CO)NC(=O)[C@H](CO)NC(=O)[C@H](CCCNC(=N)N)NC(=O)[C@@H](NC(=O)[C@@H](N)[C@@H](C)O)CSSC[C@@H](C(=O)N[C@H](C(=O)O)C(C)C)NC(=O)[C@H](C)NC(=O)[C@H](CC(=O)O)NC(=O)[C@H]([C@@H](C)O)NC1=O)C(=O)N[C@@H](CCCNC(=N)N)C(=O)N[C@@H](C)C(=O)N1CCC[C@H]1C(=O)N[C@@H](Cc1ccc(O)cc1)C(=O)N[C@@H](CC(=O)O)C(=O)N[C@@H](CCCNC(=N)N)C(=O)N[C@@H](CCCNC(=N)N)C(=O)N[C@@H](CCCNC(=N)N)C(=O)N[C@@H](CCCNC(=N)N)C(=O)N[C@@H](Cc1ccc(O)cc1)C(=O)N2 (HELM PEPTIDE1{T.C.R.S.S.G.R.Y.C.R.A.P.Y.D.R.R.R.R.Y.C.R.R.I.T.D.A.C.V}$PEPTIDE1,PEPTIDE1,2:R3-27:R3|PEPTIDE1,PEPTIDE1,9:R3-20:R3$$$V2.0)	0.01	5.6
CC[C@H](C)[C@@H]1NC(=O)[C@H](CCCNC(=N)N)NC(=O)[C@H](CCCNC(=N)N)NC(=O)[C@@H]2CSSC[C@H](NC(=O)[C@H](Cc3ccc(O)cc3)NC(=O)[C@H](CCCNC(=N)N)NC(=O)CNC(=O)[C@H](CO)NC(=O)[C@H](CO)NC(=O)[C@H](CCCNC(=N)N)NC(=O)[C@@H](NC(=O)[C@@H](N)[C@@H](C)O)CSSC[C@@H](C(=O)N[C@H](C(=O)O)C(C)C)NC(=O)[C@H](C)NC(=O)[C@H](CC(=O)O)NC(=O)[C@H]([C@@H](C)O)NC1=O)C(=O)N[C@@H](CCCNC(=N)N)C(=O)N[C@@H](CO)C(=O)N1CCC[C@H]1C(=O)N[C@@H](Cc1ccc(O)cc1)C(=O)N[C@@H](CC(=O)O)C(=O)N[C@@H](CCCNC(=N)N)C(=O)N[C@@H](CCCNC(=N)N)C(=O)N[C@@H](C)C(=O)N[C@@H](CCCNC(=N)N)C(=O)N[C@@H](Cc1ccc(O)cc1)C(=O)N2	0.058	> 10
CC[C@H](C)[C@@H]1NC(=O)[C@H](CCCNC(=N)N)NC(=O)[C@H](CCCNC(=N)N)NC(=O)[C@@H](NC(=O)[C@H](C)NC(=O)[C@H](CCCNC(=N)N)NC(=O)[C@H](CCCNC(=N)N)NC(=O)[C@H](CCCNC(=N)N)NC(=O)[C@H](CCCNC(=N)N)NC(=O)[C@H](CC(=O)O)NC(=O)[C@H](Cc2ccc(O)cc2)NC(=O)[C@@H]2CCCN2C(=O)[C@H](CO)NC(=O)[C@H](CCCNC(=N)N)NC(=O)[C@@H]2CSSC[C@H](NC(=O)[C@@H](N)[C@@H](C)O)C(=O)N[C@@H](CCCNC(=N)N)C(=O)N[C@@H](CO)C(=O)N[C@@H](CO)C(=O)NCC(=O)N[C@@H](CCCNC(=N)N)C(=O)N[C@@H](Cc3ccc(O)cc3)C(=O)N2)CSSC[C@@H](C(=O)N[C@H](C(=O)O)C(C)C)NC(=O)[C@H](C)NC(=O)[C@H](CC(=O)O)NC(=O)[C@H]([C@@H](C)O)NC1=O	0.016	4.62
